pIC50: −log10 of the molar value. Where only a bound is given, the exact number is not on record here.

Among the data in ChEMBL document CHEMBL4339247, “Ascomylactams A-C, Cytotoxic 12- or 13-Membered-Ring Macrocyclic Alkaloids Isolated from the Mangrove Endophytic Fungus Didymella sp. CYSK-4, and Structure Revisions of Phomapyrrolidones A and C” (J Nat Prod, 2019) are IC50 values, retold here.

Type in all cases: functional, cell-based
One experiment has as its system MDA-MB-435. In words: Cytotoxicity in human MDA-MB-435 cells assessed as reduction in cell viability incubated for 72 hrs by MTT assay. The note with it: MDA-MB-435, 72 h.
For a further experiment, the system named is MDA-MB-231. In words: Cytotoxicity in human MDA-MB-231 cells assessed as reduction in cell viability incubated for 72 hrs by MTT assay. The note with it: MDA-MB-231, 72 h.
The test system of a further experiment is SNB-19. In words: Cytotoxicity in human SNB19 cells assessed as reduction in cell viability incubated for 72 hrs by MTT assay. The note with it: SNB-19, 72 h. (Formazan colour is commonly taken as a measure of viable cells.)
The next experiment concerns HCT-116. Nature of the experiment: Cytotoxicity in human HCT116 cells assessed as reduction in cell viability incubated for 72 hrs by MTT assay. The note with it: HCT-116, 72 h.
In a further experiment the test system is NCI-H460. In words: Cytotoxicity in human NCI-H460 cells assessed as reduction in cell viability incubated for 72 hrs by MTT assay. The note with it: NCI-H460, 72 h.
The test system of another experiment is PC-3. In words: Cytotoxicity in human PC3 cells assessed as reduction in cell viability incubated for 72 hrs by MTT assay. The note with it: PC-3, 72 h.

One may read the pIC50 as the negative decadic logarithm of the IC50, by convention in mol/L. As for `CC1=C[C@@]2(C)C(=C(C)[C@H]3[C@@H]4C[C@H](C)C[C@H](C)[C@H]4[C@@H]4Oc5ccc(cc5)C[C@@]5(O)C=C(C(=O)N5)C(=O)[C@@H]2[C@@H]43)[C@H]1C`, the pIC50 is 4.92 in the experiment with MDA-MB-435; 5.18 with MDA-MB-231; 4.74 in the experiment with SNB-19; 5.35 in the experiment with HCT-116; 4.89 with NCI-H460; 4.70 with PC-3.

As for `COc1cccc2c1C(=O)c1c(O)c3c(c(O)c1C2=O)C[C@@](O)(C(=O)CO)C[C@@H]3O[C@H]1C[C@H](N)[C@@H](O)[C@H](C)O1` [EPIRUBICIN], the negative-log IC50 (pIC50) with SNB-19 is 5.64.

With `CC1=C[C@@]2(C)C(=C(C)[C@H]3[C@@H]4C[C@H](C)C[C@H](C)[C@H]4[C@H]4Oc5ccc(cc5)C[C@]5(O)NC(=O)[C@]6(O[C@H]65)C(=O)[C@@H]2[C@@H]43)[C@H]1C`, the negative-log IC50 (pIC50) in the experiment on MDA-MB-435 was 5.11; in the experiment with MDA-MB-231, 5.29; in the experiment on SNB-19, 5.11; in the experiment on HCT-116, 5.38; in the experiment with NCI-H460 it was 5.36; in the experiment with PC-3, 5.12.

With `CC1=C[C@@]2(C)C(=C(C)[C@H]3[C@@H]4C[C@H](C)C[C@H](C)[C@H]4[C@H]4Oc5ccc(cc5)C[C@]5(O)NC(=O)[C@]6(O[C@H]65)C(=O)[C@H]2[C@@H]43)[C@H]1C`, the negative logarithm of the IC50 (pIC50) with MDA-MB-435 is 4.80; in the experiment with MDA-MB-231, 4.92; with SNB-19, 4.54; in the experiment on HCT-116, 4.82; in the experiment on NCI-H460, 4.92; with PC-3, 4.66.

With `CO[C@@H]1/C2=C(\O)[C@H]3[C@H]4[C@H](Oc5ccc(cc5)C[C@]1(O)NC2=O)[C@H]1[C@@H](C[C@H](C)C[C@@H]1C)[C@@H]4C(C)=C1[C@@H](C)C(C)=C[C@@]13C`, the pIC50 was 5.31 in the experiment on MDA-MB-435; 5.23 with MDA-MB-231; 5.17 in the experiment with SNB-19; 5.26 with HCT-116; 5.36 in the experiment on NCI-H460; 5.24 in the experiment on PC-3.

`CC1=C[C@@]2(C)C(=C(C)[C@H]3[C@@H]4C[C@H](C)C[C@H](C)[C@H]4[C@H]4Oc5ccc(cc5)C[C@@H]5C(=O)NC(=O)[C@H]5C(=O)[C@@H]2[C@@H]43)[C@H]1C`: the pIC50 in the experiment with MDA-MB-435 is 4.59; in the experiment with MDA-MB-231 it was 4.52; in the experiment with SNB-19, < 4.30; with HCT-116 it was 4.60; in the experiment with NCI-H460, 4.55; with PC-3 it was < 4.30.
